# Patent publication US20250228806A1, “AMPK ACTIVATOR, MOTOR FUNCTION IMPROVING AGENT, MUSCULAR ENDURANCE IMPROVING AGENT, AND MUSCLE ATROPHY PREVENTING AGENT” (MARUZEN PHARMACEUTICALS CO., LTD., priority 2021, published 2025)
# Legend:
# [1] = test system: MuRF-1 (Gene Symbol: Trim63); assay: Gene expression analysis (real-time PCR) in gastrocnemius muscle of muscle atrophy model: MuRF-1; type: in vivo, rat
# Method: (§1) A gene expression analysis test using real-time PCR was conducted on the gastrocnemius muscle extracted in Testing Example 1 above. The tissue of the gastrocnemius muscle extracted in Testing Example 1 above was fragmented, and total RNA was extracted using RNeasy® Lipid Tissue Mini Kit (available from Qiagen). The obtained total RNA was quantified using a spectrophotometer, and the total RNA was prepared to be 71.4 ng/μL. Using 1000 ng of the total RNA as a template, a reverse transcription reaction was performed using SuperScript® VILO™ CDNA Synthesis Kit (available from Thermo Fisher Scientific). The reaction solution was 20 μL, and the operation was based on the manual attached to the above kit. […] Assay mixes corresponding to the genes to be analyzed were prepared for respective genes using corresponding Taqman® Gene Expression Assays (the assay ID for each gene is described previously). […] After the reaction was completed, the Ct value was calculated using analysis software (Fluidigm Real Time PCR Analysis 4.5.2, available from Fluidigm). The obtained Ct value of each gene was standardized with the Ct value of the internal standard gene GAPDH, and the relative value was calculated when the first group (control group) was set as the standard (1.00).
# [2] = test system: PGC-1α (Gene Symbol: Ppargc1a); assay: Gene expression analysis (real-time PCR) in gastrocnemius muscle of muscle atrophy model: PGC-1α; type: in vivo, rat
# Method: as §1
# [3] = test system: AMPK; assay: Kinase activation analysis in muscle atrophy model: AMPK phosphorylation (ELISA); type: in vivo, rat; conditions: gastrocnemius muscle
# Method: (§2) For the gastrocnemius muscle extracted in Testing Example 1 above, the phosphorylation state of AMPK and Akt, which are kinases contributing to increase in muscle mass, was evaluated by Luminex measurement and ELISA measurement.
# (§3) The tissue of the gastrocnemius muscle extracted in Testing Example 1 above was fragmented, and a tissue extract was collected. The total protein concentration was quantified and used for Luminex measurement and ELISA measurement described below so that the total protein amount was 10 μg per well.
# For AMPK, PathScan® Total AMPKα Sandwich ELISA Kit (available from Cell Signaling Technology, catalog number: 7961C) was used to measure the total AMPK (t-AMPK), and PathScan® Phospho-AMPKα (Thr172) ELISA Sandwich Kit (available from Cell Signaling Technology, catalog number: 7959C) was used to measure the Thr172 phosphorylated AMPK (p-AMPK).
# (§4) As an internal standard, GAPDH was measured using Total GAPDH Magnetic Bead MAPmate™ (available from EMD Millipore, catalog number: 46-667MAG), and the measured values of the above AMPK and Akt were standardized.
# [4] = test system: rat muscle atrophy model; assay: Muscle atrophy preventing action test (hindlimb suspension); type: in vivo
# Method: Using the compound (I) (Sample 1), the muscle atrophy preventing action on a rat muscle atrophy model was tested in the following manner. Eight-week-old male Crlj:WI rats (purchased from Charles River Laboratories Japan, Inc.) were reared in an maintained environment of controlled temperature: 20.0-26.0° C., controlled humidity: 40.0-70.0% RH, light and dark for 12 hours each, and ventilation frequency: 12 times/hour. During the rearing period, solid feed (CRF-1, available from Oriental Yeast Co., Ltd.) was placed in a feeder and consumed ad libitum. However, during the hindlimb suspension rearing period described below, the rats were allowed to consume the feed by scattering it on the floor. For drinking water, tap water was available ad libitum using a water bottle. After a 5-day quarantine period and a 2-day acclimatization period, the rats were grouped with 8 rats per group as listed in Table 1 by random sampling so that the average weight and variance of each group were approximately equal. The rats were put into a state in which the tails of the rats were attached to a rail on the ceiling with a rat tail suspension clip and the hindlimbs of the rats were off the floor (hindlimb suspension), and muscle atrophy was induced in this state by rearing the rats for 14 days after the grouping on the grouping day. During the period of rearing with suspended hindlimbs, the rats were able to move within the rearing cage using their forelimbs, and were able to freely consume water and feed. The compound (I) (Sample 1) was dissolved in water for injection and administered orally by force using a syringe to which a feeding needle was attached. The grouping day was taken as the first day (day 1 of administration), the administration was performed once a day for 14 days, and the day after the 14th day of administration (day 15 of administration) was the last day of the rearing period. On the last day of the hindlimb suspension rearing (day 15 of administration), blood was collected from the abdominal aorta using a heparin-Na treated vacuum blood collection tube and a winged intravenous needle under isoflurane anesthesia. After blood collection, the rats were euthanized by exsanguination from the abdominal aorta, and the right and left gastrocnemius and soleus muscles were extracted. The extracted gastrocnemius and soleus muscles were weighed separately on the right and left sides (the values in Table 2 are the total values).
# [5] = test system: Atrogin-1 (Gene Symbol: Fbxo32); assay: Gene expression analysis (real-time PCR) in gastrocnemius muscle of muscle atrophy model: Atrogin-1; type: in vivo, rat
# Method: as §1
# [6] = test system: GLUT4 (Gene Symbol: Slc2a4); assay: Gene expression analysis (real-time PCR) in gastrocnemius muscle of muscle atrophy model: GLUT4; type: in vivo, rat
# Method: as §1
# [7] = test system: IL-6 (Gene Symbol: Il6); assay: Gene expression analysis (real-time PCR) in gastrocnemius muscle of muscle atrophy model: IL-6; type: in vivo, rat
# Method: as §1
# [8] = test system: Akt; assay: Kinase activation analysis in muscle atrophy model: Akt phosphorylation (Luminex); type: in vivo, rat; conditions: gastrocnemius muscle
# Method: as §2, §3
# For Akt, MILLIPLEX® MAP Phospho/Total Akt 2-Plex Magnetic Bead Kit 96-well Plate Assay (available from EMD Millipore, catalog number: 48-618MAG) was used to measure the total Akt amount (t-Akt) and the phosphorylated Akt (p-Akt, Ser473) all at once in one reaction system.
# as §4
# [9] = 125 mg/kg orally 14 days, standardized with GAPDH
# [10] = administration group 125 mg/kg vs control group
smiles,measurement,setting,value
"COc1cc(CCC(=O)O)ccc1O [compound (I), 3-(4-hydroxy-3-methoxyphenyl) propionic acid]","MuRF-1 (Trim63) gene expression, relative value (control group = 1.00)",[1]; [9],0.81
same,MuRF-1 gene expression compared to control group (in words),[1]; administration group 125 mg/kg,tendency to decrease
same,"PGC-1α (Ppargc1a) gene expression, relative value (control group = 1.00)",[2]; [9],1.28
same,PGC-1α gene expression compared to control group (in words),[2]; administration group 125 mg/kg,tendency to increase
same,p-AMPK/t-AMPK,"[3]; 125 mg/kg orally 14 days, Thr172, standardized with GAPDH, control group 100.0",120.8
same,phosphorylated form of AMPK compared to control group (in words),[3]; administration group 125 mg/kg,tendency to increase
same,difference in body weight between groups (in words),[4]; [10],no difference was observed
same,weight of the gastrocnemius muscle compared to control group (in words),[4]; [10],increased
same,weight of the soleus muscle compared to control group (in words),[4]; [10],increased
same,muscle mass (in words),"[4]; administration of 125 mg/kg, rat muscle atrophy model",increased
same,Gastrocnemius muscle (total of right and left) weight,"[4]; hindlimb-suspended rats, 125 mg/kg orally once a day for 14 days, day 15, control 2.50",2.69 g
same,Soleus muscle (total of right and left) weight,"[4]; hindlimb-suspended rats, 125 mg/kg orally once a day for 14 days, day 15, control 130.3",149.1 mg
same,Body weight,"[4]; hindlimb-suspended rats, 125 mg/kg orally once a day for 14 days, day 15, control 310",309 g
same,"Atrogin-1 (Fbxo32) gene expression, relative value (control group = 1.00)",[5]; [9],0.68
same,Atrogin-1 gene expression compared to control group (in words),[5]; administration group 125 mg/kg,tendency to decrease
same,"GLUT4 (Slc2a4) gene expression, relative value (control group = 1.00)",[6]; [9],1.13
same,GLUT4 gene expression compared to control group (in words),[6]; administration group 125 mg/kg,tendency to increase
same,"IL-6 (Il6) gene expression, relative value (control group = 1.00)",[7]; [9],1.10
same,IL-6 gene expression compared to control group (in words),[7]; administration group 125 mg/kg,tendency to increase
same,p-Akt/t-Akt,"[8]; 125 mg/kg orally 14 days, Ser473, standardized with GAPDH, control group 100.0",172.9
same,phosphorylated form of Akt compared to control group (in words),[8]; administration group 125 mg/kg,tendency to increase
